Source: publication PMC9329436, “Optimization of the 4-anilinoquin(az)oline scaffold as epidermal growth factor receptor (EGFR) inhibitors for chordoma utilizing a toxicology profiling assay platform” (Scientific Reports, 2022)
Like-named read-outs stand apart in the source and are kept apart here.

Assays:
Format in all cases: biochemical
[1] = biological target: T1, 320 wild-type protein kinases (Homo sapiens, UniProt Q13163); conditions: singlicate
T1 sequence (Q13163 1-448): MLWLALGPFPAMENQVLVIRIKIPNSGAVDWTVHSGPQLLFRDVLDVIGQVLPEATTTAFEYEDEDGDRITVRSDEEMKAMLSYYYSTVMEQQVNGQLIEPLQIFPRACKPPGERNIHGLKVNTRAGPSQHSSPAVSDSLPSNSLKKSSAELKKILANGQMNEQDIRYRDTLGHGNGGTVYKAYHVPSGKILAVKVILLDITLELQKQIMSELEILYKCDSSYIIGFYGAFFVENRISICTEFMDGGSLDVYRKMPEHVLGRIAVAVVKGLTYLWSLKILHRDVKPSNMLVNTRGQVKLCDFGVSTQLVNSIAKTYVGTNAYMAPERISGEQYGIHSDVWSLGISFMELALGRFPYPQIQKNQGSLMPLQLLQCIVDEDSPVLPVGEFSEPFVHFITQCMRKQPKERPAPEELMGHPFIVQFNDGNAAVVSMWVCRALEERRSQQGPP
Source text: (§1) Table S4. Profiling of two compounds at two concentrations against 320 wild-type protein kinases; singlicate measurement; Residual activities (% of control).

[2] = biological target: 320 wild-type protein kinases (Homo sapiens, UniProt P04629); conditions: kinase TRK-A, singlicate
Source text: as §1

[3] = biological target: T2, 320 wild-type protein kinases (Homo sapiens, UniProt Q99640); conditions: singlicate
T2 sequence (Q99640 1-499): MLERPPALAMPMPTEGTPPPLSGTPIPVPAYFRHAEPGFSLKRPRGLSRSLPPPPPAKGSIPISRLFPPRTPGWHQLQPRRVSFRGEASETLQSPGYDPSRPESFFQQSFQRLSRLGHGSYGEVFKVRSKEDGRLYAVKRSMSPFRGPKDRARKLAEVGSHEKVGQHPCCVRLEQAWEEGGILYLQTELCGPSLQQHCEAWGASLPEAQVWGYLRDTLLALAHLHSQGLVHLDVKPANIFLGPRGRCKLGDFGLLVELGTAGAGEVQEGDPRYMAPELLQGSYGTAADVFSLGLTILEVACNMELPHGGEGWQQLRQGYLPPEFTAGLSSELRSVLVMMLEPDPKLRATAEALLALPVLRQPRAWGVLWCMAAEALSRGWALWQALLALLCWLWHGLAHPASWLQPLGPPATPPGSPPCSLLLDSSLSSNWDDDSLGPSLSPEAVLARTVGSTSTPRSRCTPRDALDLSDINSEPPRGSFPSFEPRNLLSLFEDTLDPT
Source text: as §1

[4] = biological target: 320 wild-type protein kinases (Homo sapiens, UniProt P68400); conditions: singlicate
Source text: as §1

[5] = biological target: 320 wild-type protein kinases (Homo sapiens, UniProt P50750); conditions: singlicate
Source text: as §1

[6] = biological target: T3, 320 wild-type protein kinases (Homo sapiens, UniProt O14965); conditions: Aurora-A, singlicate
T3 sequence (O14965 1-403): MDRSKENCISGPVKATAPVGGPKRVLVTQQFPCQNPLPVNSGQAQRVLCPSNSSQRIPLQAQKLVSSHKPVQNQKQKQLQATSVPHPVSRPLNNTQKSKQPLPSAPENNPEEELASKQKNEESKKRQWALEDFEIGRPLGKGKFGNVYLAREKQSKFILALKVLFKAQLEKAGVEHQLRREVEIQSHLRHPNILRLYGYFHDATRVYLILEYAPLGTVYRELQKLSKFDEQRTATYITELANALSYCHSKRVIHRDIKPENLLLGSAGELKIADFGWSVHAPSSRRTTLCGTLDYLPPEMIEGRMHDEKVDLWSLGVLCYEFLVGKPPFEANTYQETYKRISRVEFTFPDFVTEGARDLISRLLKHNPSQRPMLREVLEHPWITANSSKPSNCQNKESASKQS
Source text: as §1

[7] = biological target: 320 wild-type protein kinases (Homo sapiens, UniProt Q9H3Y6); conditions: kinase SRMS, singlicate
Source text: as §1

[8] = biological target: 320 wild-type protein kinases (Homo sapiens, UniProt P31751); conditions: singlicate
Source text: as §1

[9] = biological target: 320 wild-type protein kinases (Homo sapiens, UniProt Q9HC98); conditions: singlicate
Source text: as §1

[10] = biological target: T4, 320 wild-type protein kinases (Homo sapiens, UniProt Q8TD08); conditions: singlicate
T4 sequence (Q8TD08 1-544): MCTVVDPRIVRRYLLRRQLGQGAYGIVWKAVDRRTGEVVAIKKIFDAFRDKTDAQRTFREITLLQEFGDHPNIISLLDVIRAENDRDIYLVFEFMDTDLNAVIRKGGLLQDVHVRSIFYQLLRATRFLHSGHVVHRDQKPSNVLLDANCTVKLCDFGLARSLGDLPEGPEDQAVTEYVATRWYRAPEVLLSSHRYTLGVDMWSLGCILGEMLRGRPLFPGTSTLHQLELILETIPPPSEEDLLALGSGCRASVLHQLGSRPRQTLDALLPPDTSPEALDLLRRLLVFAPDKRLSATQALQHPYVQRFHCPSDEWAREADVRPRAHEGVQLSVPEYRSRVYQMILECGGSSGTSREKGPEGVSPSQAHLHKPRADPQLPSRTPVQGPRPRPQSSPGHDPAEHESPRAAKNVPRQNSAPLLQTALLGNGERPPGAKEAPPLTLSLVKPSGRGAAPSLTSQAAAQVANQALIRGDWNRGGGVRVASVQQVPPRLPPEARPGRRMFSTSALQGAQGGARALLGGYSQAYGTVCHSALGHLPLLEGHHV
Source text: as §1

[11] = biological target: 320 wild-type protein kinases (Homo sapiens, UniProt P17252); conditions: PKC-alpha, singlicate
Source text: as §1

Sequence of 320 wild-type protein kinases (Homo sapiens, UniProt Q9H3Y6) (Q9H3Y6 whole entry): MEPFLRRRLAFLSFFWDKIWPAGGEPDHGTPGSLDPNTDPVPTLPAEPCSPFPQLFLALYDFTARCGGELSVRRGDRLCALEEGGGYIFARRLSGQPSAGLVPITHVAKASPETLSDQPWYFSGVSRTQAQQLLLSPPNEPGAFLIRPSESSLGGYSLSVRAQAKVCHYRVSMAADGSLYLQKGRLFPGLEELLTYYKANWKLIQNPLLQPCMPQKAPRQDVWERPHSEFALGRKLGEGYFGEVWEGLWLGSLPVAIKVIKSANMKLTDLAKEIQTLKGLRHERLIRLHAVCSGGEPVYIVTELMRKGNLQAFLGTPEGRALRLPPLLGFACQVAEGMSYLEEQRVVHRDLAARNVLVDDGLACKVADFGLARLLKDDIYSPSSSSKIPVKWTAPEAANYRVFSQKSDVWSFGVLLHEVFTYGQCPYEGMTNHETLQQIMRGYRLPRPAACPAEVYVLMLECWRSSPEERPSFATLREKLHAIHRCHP
Sequence of 320 wild-type protein kinases (Homo sapiens, UniProt P31751) (P31751 whole entry): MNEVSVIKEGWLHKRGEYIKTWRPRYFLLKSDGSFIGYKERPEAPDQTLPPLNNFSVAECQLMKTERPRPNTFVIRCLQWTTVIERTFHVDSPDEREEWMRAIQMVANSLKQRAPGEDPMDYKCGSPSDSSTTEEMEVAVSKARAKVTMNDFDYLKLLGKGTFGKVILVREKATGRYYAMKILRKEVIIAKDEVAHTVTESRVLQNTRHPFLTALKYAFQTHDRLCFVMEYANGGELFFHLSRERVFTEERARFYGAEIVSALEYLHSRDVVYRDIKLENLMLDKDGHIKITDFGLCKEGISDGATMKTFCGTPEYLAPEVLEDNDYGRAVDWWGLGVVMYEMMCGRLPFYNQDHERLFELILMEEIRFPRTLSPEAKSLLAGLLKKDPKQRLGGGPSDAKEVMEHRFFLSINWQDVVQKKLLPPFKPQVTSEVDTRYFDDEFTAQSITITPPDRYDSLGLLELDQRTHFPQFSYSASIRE
Sequence of 320 wild-type protein kinases (Homo sapiens, UniProt P04629) (P04629 33-796): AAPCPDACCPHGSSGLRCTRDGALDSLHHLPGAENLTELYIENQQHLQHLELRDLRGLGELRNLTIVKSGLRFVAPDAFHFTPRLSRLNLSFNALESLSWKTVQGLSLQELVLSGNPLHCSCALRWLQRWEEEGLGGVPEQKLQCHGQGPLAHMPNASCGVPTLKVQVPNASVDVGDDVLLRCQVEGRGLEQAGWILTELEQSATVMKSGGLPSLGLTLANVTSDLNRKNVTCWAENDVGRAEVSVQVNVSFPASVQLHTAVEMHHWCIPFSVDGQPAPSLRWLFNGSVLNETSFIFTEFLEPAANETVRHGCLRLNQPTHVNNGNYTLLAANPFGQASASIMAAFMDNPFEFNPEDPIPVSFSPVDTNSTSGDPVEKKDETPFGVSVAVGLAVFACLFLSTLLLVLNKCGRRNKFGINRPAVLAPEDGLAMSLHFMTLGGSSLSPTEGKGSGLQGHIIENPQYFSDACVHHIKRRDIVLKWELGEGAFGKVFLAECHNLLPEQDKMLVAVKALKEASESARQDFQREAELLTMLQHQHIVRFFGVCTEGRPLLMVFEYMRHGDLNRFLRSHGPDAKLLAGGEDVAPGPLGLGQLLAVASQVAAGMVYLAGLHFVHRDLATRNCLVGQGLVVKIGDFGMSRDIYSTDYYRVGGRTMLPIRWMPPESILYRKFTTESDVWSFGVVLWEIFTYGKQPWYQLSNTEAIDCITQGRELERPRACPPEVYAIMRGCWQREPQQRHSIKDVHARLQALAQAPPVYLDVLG
Sequence of 320 wild-type protein kinases (Homo sapiens, UniProt P50750) (P50750 whole entry): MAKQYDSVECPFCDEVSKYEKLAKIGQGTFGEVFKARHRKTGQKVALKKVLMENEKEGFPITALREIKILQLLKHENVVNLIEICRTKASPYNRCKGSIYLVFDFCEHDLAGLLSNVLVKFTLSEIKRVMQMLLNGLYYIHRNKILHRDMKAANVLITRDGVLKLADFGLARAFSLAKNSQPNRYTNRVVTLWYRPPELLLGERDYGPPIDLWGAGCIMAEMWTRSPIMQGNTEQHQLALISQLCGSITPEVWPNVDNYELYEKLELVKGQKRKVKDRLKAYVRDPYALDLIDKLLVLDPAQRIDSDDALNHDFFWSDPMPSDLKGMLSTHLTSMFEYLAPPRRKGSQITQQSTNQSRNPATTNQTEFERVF
Sequence of 320 wild-type protein kinases (Homo sapiens, UniProt Q9HC98) (Q9HC98 whole entry): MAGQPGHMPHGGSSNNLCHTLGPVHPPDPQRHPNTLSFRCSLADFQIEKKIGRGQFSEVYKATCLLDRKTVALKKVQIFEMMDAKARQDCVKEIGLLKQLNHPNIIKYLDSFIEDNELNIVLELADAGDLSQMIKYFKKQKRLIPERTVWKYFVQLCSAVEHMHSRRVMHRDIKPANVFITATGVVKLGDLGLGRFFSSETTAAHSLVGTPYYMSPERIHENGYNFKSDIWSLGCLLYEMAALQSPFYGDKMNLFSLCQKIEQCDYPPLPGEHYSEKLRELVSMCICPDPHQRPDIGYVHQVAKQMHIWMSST
Sequence of 320 wild-type protein kinases (Homo sapiens, UniProt P68400) (P68400 whole entry): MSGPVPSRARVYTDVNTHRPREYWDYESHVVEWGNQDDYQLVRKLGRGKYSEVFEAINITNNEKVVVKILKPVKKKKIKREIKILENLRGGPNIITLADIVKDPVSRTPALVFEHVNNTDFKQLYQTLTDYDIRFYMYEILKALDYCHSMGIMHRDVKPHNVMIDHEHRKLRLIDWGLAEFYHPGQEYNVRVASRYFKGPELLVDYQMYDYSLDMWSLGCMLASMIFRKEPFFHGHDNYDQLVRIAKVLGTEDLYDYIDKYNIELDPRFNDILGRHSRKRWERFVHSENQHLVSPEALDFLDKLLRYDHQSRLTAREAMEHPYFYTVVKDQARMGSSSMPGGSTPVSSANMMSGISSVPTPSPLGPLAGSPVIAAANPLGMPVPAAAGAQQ

SMILES | Residual activity ([1]; MEK5, 1.0E-06 M) | Residual activity ([1]; MEK5, 1.0E-07 M) | Residual activity, TRK-A ([2]; assay conc. 1.0E-06 M) | Residual activity, TRK-A ([2]; assay conc. 1.0E-07 M) | Residual activity ([3]; PKMYT1, 1.0E-06 M) | Residual activity ([3]; PKMYT1, 1.0E-07 M) | Residual activity ([4]; CK2-alpha1, 1.0E-06 M) | Residual activity ([4]; CK2-alpha1, 1.0E-07 M) | Residual activity ([5]; CDK9/CycK, 1.0E-06 M) | Residual activity ([5]; CDK9/CycK, 1.0E-07 M) | Residual activity ([5]; CDK9/CycT1, 1.0E-06 M) | Residual activity ([5]; CDK9/CycT1, 1.0E-07 M) | Residual activity ([6]; 1.0E-06 M) | Residual activity ([6]; 1.0E-07 M) | Residual activity, SRMS ([7]; assay conc. 1.0E-06 M) | Residual activity, SRMS ([7]; assay conc. 1.0E-07 M) | Residual activity ([8]; AKT2 aa107-481, 1.0E-06 M) | Residual activity ([8]; AKT2 aa107-481, 1.0E-07 M) | Residual activity ([9]; NEK6, 1.0E-06 M) | Residual activity ([9]; NEK6, 1.0E-07 M) | other results
C#Cc1cc(Nc2ncnc3cc(I)ccc23)ccc1Cl [Compound 41] | 100 % of control | 103 % of control | 107 % of control | 100 % of control | 79 % of control | 88 % of control | 99 % of control | 104 % of control | 80 % of control | 99 % of control | 92 % of control | 95 % of control | 81 % of control | 95 % of control | 98 % of control | 113 % of control | 86 % of control | 98 % of control | 92 % of control | 84 % of control | Residual activity ([10]; ERK7, 1.0E-06 M): 96 % of control; Residual activity ([10]; ERK7, 1.0E-07 M): 94 % of control; Residual activity ([11]; 1.0E-06 M): 95 % of control; Residual activity ([11]; 1.0E-07 M): 86 % of control
C#Cc1cc(Nc2ncnc3cc(OC)c(OC)cc23)ccc1Cl [Compound 45] | 108 % of control | 107 % of control | 87 % of control | 106 % of control | 95 % of control | 114 % of control | 101 % of control | 109 % of control | 86 % of control | 103 % of control | 88 % of control | 90 % of control | 80 % of control | 99 % of control | 103 % of control | 124 % of control | 94 % of control | 112 % of control | 92 % of control | 90 % of control | Residual activity ([10]; ERK7, 1.0E-06 M): 90 % of control; Residual activity ([10]; ERK7, 1.0E-07 M): 104 % of control; Residual activity ([11]; 1.0E-06 M): 94 % of control; Residual activity ([11]; 1.0E-07 M): 111 % of control
